{
  "source": "patent EP0291696A2",
  "about": "“Process of multiplication of epithelial cells” (Battelle-Institut e.V., priority 1987, dated 1988)",
  "key": {"Keratinozyten [1]": {"system": "Keratinozyten", "test": "Keratinocyte culture: cell count after 12 days and days to confluence (Beispiel 2)", "format": "cell-based, human"}, "Keratinozyten [2]": {"system": "Keratinozyten", "test": "Keratinocyte culture with FCS or Nu-Serum: cell count after 12 days and days to confluence (Beispiel 3)", "format": "cell-based, human", "source_text": "Kerationozyten wurden durch Trypsinierung von Haut nach der Methode von M. Green (Green, M. et al, PNAS 76 (1979) 5665) gewonnen und in einer Zelldichte von 2,5 x 10 ⁴ Zellen/cm² ausgesät. Die Hautproben in den Beispielen 1, 2 und 3 stammten von Patienten die zwischen 30 und 40 Jahre alt waren. Zusätzlich wurden die Kulturen mit 2 x 10 ⁴ Zellen/cm² letal bestrahlter 3T3-Fibroblasten inokuliert, beschrieben im US-Patent 4,016,036.\nAls Medium diente eine Mischung aus DMEM und HAM's F 12 (3:1) mit folgenden Zusätzen: Hydrocortison 0,4 ug/ml Insulin 5 ug/ml Triiodo-Thyronin 2x10⁻⁹M Transferrin 5 ug/ml Adenin 8 x 10⁻⁴ M Gentamycin, Penicillin, Streptomycin je 50 ug/ml Fötales Kälberserum 10 % EGF (nach 2 Tagen) 10 ng/ml\nIn diesem Experiment, das wie unter Beispiel 1 beschrieben durchgeführt wurde, wurden verschiedene Forskolinkonzentrationen unter Verwendung bzw. in Vergleich von 10 % fötalem Kälberserum (FCS) und einem synthetischen Serum der Firma Biomedica Wien (Nu-Serum Nr. 1) untersucht."}},
  "data": [
    {"compound": "C=C[C@@]1(C)CC(=O)[C@]2(O)[C@@]3(C)[C@@H](O)CCC(C)(C)[C@@H]3[C@H](O)[C@H](OC(C)=O)[C@@]2(C)O1", "note": "[Forskolin]", "values": [
      {"measurement": "Anzahl der Tage bis zur Konfluenz", "setting": "Keratinozyten [1]; 5x10^-5M", "value": 18, "unit": "Tage"},
      {"measurement": "Zellzahl nach 12 Tagen in einer 25cm^2 Kultur-schale", "setting": "Keratinozyten [1]; 5x10^-5M", "value": "13 x 10^5"},
      {"measurement": "Anzahl der Tage bis zur Konfluenz", "setting": "Keratinozyten [1]; 5x10^-6M", "value": 14, "unit": "Tage"},
      {"measurement": "Zellzahl nach 12 Tagen in einer 25cm^2 Kultur-schale", "setting": "Keratinozyten [1]; 5x10^-6M", "value": "23 x 10^5"},
      {"measurement": "Anzahl der Tage bis zur Konfluenz", "setting": "Keratinozyten [1]; 10^-5M", "value": 14, "unit": "Tage"},
      {"measurement": "Zellzahl nach 12 Tagen in einer 25cm^2 Kultur-schale", "setting": "Keratinozyten [1]; 10^-5M", "value": "25 x 10^5"},
      {"measurement": "Anzahl der Tage bis zur Konfluenz", "setting": "Keratinozyten [1]; 10^-6M", "value": 18, "unit": "Tage"},
      {"measurement": "Zellzahl nach 12 Tagen in einer 25cm^2 Kultur-schale", "setting": "Keratinozyten [1]; 10^-6M", "value": "12 x 10^5"},
      {"measurement": "Anzahl der Tage bis zur Konfluenz", "setting": "Keratinozyten [1]; 10^-7M", "value": 24, "unit": "Tage"},
      {"measurement": "Zellzahl nach 12 Tagen in einer 25cm^2 Kultur-schale", "setting": "Keratinozyten [1]; 10^-7M", "value": "8 x 10^5"},
      {"measurement": "Zellzahl nach 12 Tagen in einer 25cm^2 Kultur-schale", "setting": "Keratinozyten [1]; 10^-8M", "value": "2,5 x 10^5"},
      {"measurement": "Reduction of the Zeit bis zum Erreichen einer konfluenten Keratinozytenkultur im Vergleich zu Cholera Toxin", "setting": "Keratinozyten [1]; Forskolin 5 x 10⁻⁶ bzw. 10⁻⁵ in the medium", "value": "≤ 40", "unit": "%"},
      {"measurement": "Anzahl der Tage bis zur Konfluenz", "setting": "Keratinozyten [2]; FCS, 5x10^-5M", "value": 18, "unit": "Tage"},
      {"measurement": "Zellzahl nach 12 Tagen in einer 25cm^2 Kultur-schale", "setting": "Keratinozyten [2]; FCS, 5x10^-5M", "value": "16 x 10^5"},
      {"measurement": "Anzahl der Tage bis zur Konfluenz", "setting": "Keratinozyten [2]; FCS, 5x10^-6M", "value": 15, "unit": "Tage"},
      {"measurement": "Zellzahl nach 12 Tagen in einer 25cm^2 Kultur-schale", "setting": "Keratinozyten [2]; FCS, 5x10^-6M", "value": "24 x 10^5"},
      {"measurement": "Anzahl der Tage bis zur Konfluenz", "setting": "Keratinozyten [2]; FCS, 10^-5M", "value": 14, "unit": "Tage"},
      {"measurement": "Zellzahl nach 12 Tagen in einer 25cm^2 Kultur-schale", "setting": "Keratinozyten [2]; FCS, 10^-5M", "value": "32 x 10^5"},
      {"measurement": "Anzahl der Tage bis zur Konfluenz", "setting": "Keratinozyten [2]; FCS, 10^-6M", "value": 20, "unit": "Tage"},
      {"measurement": "Zellzahl nach 12 Tagen in einer 25cm^2 Kultur-schale", "setting": "Keratinozyten [2]; FCS, 10^-6M", "value": "14 x 10^5"},
      {"measurement": "Anzahl der Tage bis zur Konfluenz", "setting": "Keratinozyten [2]; Nu-Serum, 5x10^-5M", "value": 18, "unit": "Tage"},
      {"measurement": "Zellzahl nach 12 Tagen in einer 25cm^2 Kultur-schale", "setting": "Keratinozyten [2]; Nu-Serum, 5x10^-5M", "value": "13 x 10^5"},
      {"measurement": "Anzahl der Tage bis zur Konfluenz", "setting": "Keratinozyten [2]; Nu-Serum, 5x10^-6M", "value": 16, "unit": "Tage"},
      {"measurement": "Zellzahl nach 12 Tagen in einer 25cm^2 Kultur-schale", "setting": "Keratinozyten [2]; Nu-Serum, 5x10^-6M", "value": "25 x 10^5"},
      {"measurement": "Anzahl der Tage bis zur Konfluenz", "setting": "Keratinozyten [2]; Nu-Serum, 10^-5M", "value": 15, "unit": "Tage"},
      {"measurement": "Zellzahl nach 12 Tagen in einer 25cm^2 Kultur-schale", "setting": "Keratinozyten [2]; Nu-Serum, 10^-5M", "value": "27 x 10^5"},
      {"measurement": "Anzahl der Tage bis zur Konfluenz", "setting": "Keratinozyten [2]; Nu-Serum, 10^-6M", "value": 20, "unit": "Tage"},
      {"measurement": "Zellzahl nach 12 Tagen in einer 25cm^2 Kultur-schale", "setting": "Keratinozyten [2]; Nu-Serum, 10^-6M", "value": "14 x 10^5"}
    ]}
  ]
}
